# Reference: PubChem BioAssay (NCI)
#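 Each compound was tested at five concentrations against cells in 96-well plates for 48 hours. Abbreviation: GI50, concentration required for 50% inhibition of growth. The concentration for full growth arrest is given as TGI.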
# Assays:
# Assay in all cases: NCI anticancer screen, dose series, 48 h
# A549 NSCLC = tested on: A549 NSCLC
# NCI-H23 lung = tested on: NCI-H23 lung
# OVCAR-8 ovarian = tested on: OVCAR-8 ovarian
# EKVX NSCLC = tested on: EKVX NSCLC
# SK-MEL-5 melanoma = tested on: SK-MEL-5 melanoma
# K-562 leukemia = tested on: K-562 leukemia
# MOLT-4 leukemia = tested on: MOLT-4 leukemia
# HS 578T breast = tested on: HS 578T breast
# HOP-62 NSCLC = tested on: HOP-62 NSCLC
# NCI/ADR-RES ovarian = tested on: NCI/ADR-RES ovarian
# M14 melanoma = tested on: M14 melanoma
# PC-3 prostate = tested on: PC-3 prostate
# SF-295 CNS = tested on: SF-295 CNS
# HCC-2998 colon = tested on: HCC-2998 colon
# SF-268 CNS = tested on: SF-268 CNS
# CAKI-1 renal = tested on: CAKI-1 renal
# HT29 colon = tested on: HT29 colon
# LOX IMVI melanoma = tested on: LOX IMVI melanoma
# IGROV1 ovarian = tested on: IGROV1 ovarian
# SNB-75 CNS = tested on: SNB-75 CNS
# NCI-H522 lung = tested on: NCI-H522 lung
# SN12C renal = tested on: SN12C renal
# SNB-19 CNS = tested on: SNB-19 CNS
# SK-OV-3 ovarian = tested on: SK-OV-3 ovarian
# SW-620 colon = tested on: SW-620 colon
# MDA-MB-231 breast = tested on: MDA-MB-231 breast
# HCT-116 colon = tested on: HCT-116 colon
# RXF 393 renal = tested on: RXF 393 renal
# U251 CNS = tested on: U251 CNS
# DU-145 prostate = tested on: DU-145 prostate
# UACC-62 melanoma = tested on: UACC-62 melanoma
# HL-60(TB) leukemia = tested on: HL-60(TB) leukemia
# MCF7 breast = tested on: MCF7 breast
# UO-31 renal = tested on: UO-31 renal
# UACC-257 melanoma = tested on: UACC-257 melanoma
# MDA-MB-435 = tested on: MDA-MB-435
# SR leukemia = tested on: SR leukemia
# OVCAR-4 ovarian = tested on: OVCAR-4 ovarian
# SK-MEL-2 melanoma = tested on: SK-MEL-2 melanoma
# OVCAR-5 ovarian = tested on: OVCAR-5 ovarian
# MALME-3M melanoma = tested on: MALME-3M melanoma
# NCI-H460 lung = tested on: NCI-H460 lung
# 786-0 renal = tested on: 786-0 renal
# HOP-92 NSCLC = tested on: HOP-92 NSCLC
# T-47D breast = tested on: T-47D breast
# BT-549 breast = tested on: BT-549 breast
# A498 renal = tested on: A498 renal
# HCT-15 colon = tested on: HCT-15 colon
# ACHN renal = tested on: ACHN renal
# SK-MEL-28 melanoma = tested on: SK-MEL-28 melanoma
# RPMI-8226 leukemia = tested on: RPMI-8226 leukemia
# COLO 205 colon = tested on: COLO 205 colon
# TK-10 renal = tested on: TK-10 renal
# KM12 colon = tested on: KM12 colon
# SF-539 CNS = tested on: SF-539 CNS
# OVCAR-3 ovarian = tested on: OVCAR-3 ovarian
# NCI-H226 lung = tested on: NCI-H226 lung
smiles,measurement,setting,value
COc1cc([C@@H]2c3cc4c(cc3C(OC3O[C@@H]5COC(C)O[C@H]5[C@H](O)[C@H]3O)C3COC(=O)[C@@H]32)OCO4)cc(OC)c1O (stereo partly drawn),GI50,A549 NSCLC,0.363 µM
same,TGI,A549 NSCLC,> 39.1 µM
same,GI50,NCI-H23 lung,0.652 µM
same,TGI,NCI-H23 lung,6.88 µM
same,GI50,OVCAR-8 ovarian,1.56 µM
same,TGI,OVCAR-8 ovarian,> 34.8 µM
same,GI50,EKVX NSCLC,11.4 µM
same,TGI,EKVX NSCLC,> 50 µM
same,GI50,SK-MEL-5 melanoma,0.861 µM
same,TGI,SK-MEL-5 melanoma,7.96 µM
same,GI50,K-562 leukemia,1.53 µM
same,TGI,K-562 leukemia,> 30.3 µM
same,GI50,MOLT-4 leukemia,0.0948 µM
same,TGI,MOLT-4 leukemia,0.882 µM
same,GI50,HS 578T breast,1.97 µM
same,TGI,HS 578T breast,> 31.8 µM
same,GI50,HOP-62 NSCLC,0.619 µM
same,TGI,HOP-62 NSCLC,2.97 µM
same,GI50,NCI/ADR-RES ovarian,15.4 µM
same,TGI,NCI/ADR-RES ovarian,> 50 µM
same,GI50,M14 melanoma,1.37 µM
same,TGI,M14 melanoma,7.83 µM
same,GI50,PC-3 prostate,5.59 µM
same,TGI,PC-3 prostate,> 50 µM
same,GI50,SF-295 CNS,0.72 µM
same,TGI,SF-295 CNS,9.83 µM
same,GI50,HCC-2998 colon,1.91 µM
same,TGI,HCC-2998 colon,11.2 µM
same,GI50,SF-268 CNS,1.22 µM
same,TGI,SF-268 CNS,15.4 µM
same,GI50,CAKI-1 renal,1.83 µM
same,TGI,CAKI-1 renal,> 28.1 µM
same,GI50,HT29 colon,5.42 µM
same,TGI,HT29 colon,20.3 µM
same,GI50,LOX IMVI melanoma,0.444 µM
same,TGI,LOX IMVI melanoma,13.7 µM
same,GI50,IGROV1 ovarian,2.95 µM
same,TGI,IGROV1 ovarian,> 50 µM
same,GI50,SNB-75 CNS,1.18 µM
same,TGI,SNB-75 CNS,> 18.9 µM
same,GI50,NCI-H522 lung,0.65 µM
same,TGI,NCI-H522 lung,4.91 µM
same,GI50,SN12C renal,0.917 µM
same,TGI,SN12C renal,12.4 µM
same,GI50,SNB-19 CNS,0.836 µM
same,TGI,SNB-19 CNS,> 47.9 µM
same,GI50,SK-OV-3 ovarian,1.58 µM
same,TGI,SK-OV-3 ovarian,14.2 µM
same,GI50,SW-620 colon,0.67 µM
same,TGI,SW-620 colon,> 27.2 µM
same,GI50,MDA-MB-231 breast,7.25 µM
same,TGI,MDA-MB-231 breast,> 40.4 µM
same,GI50,HCT-116 colon,1.27 µM
same,TGI,HCT-116 colon,> 50 µM
same,GI50,RXF 393 renal,0.982 µM
same,TGI,RXF 393 renal,8.31 µM
same,GI50,U251 CNS,0.667 µM
same,TGI,U251 CNS,14.9 µM
same,GI50,DU-145 prostate,1.2 µM
same,TGI,DU-145 prostate,5.78 µM
same,GI50,UACC-62 melanoma,0.868 µM
same,TGI,UACC-62 melanoma,> 44.9 µM
same,GI50,HL-60(TB) leukemia,0.182 µM
same,TGI,HL-60(TB) leukemia,1.53 µM
same,GI50,MCF7 breast,0.254 µM
same,TGI,MCF7 breast,> 50 µM
same,GI50,UO-31 renal,3 µM
same,TGI,UO-31 renal,31.6 µM
same,GI50,UACC-257 melanoma,2.12 µM
same,TGI,UACC-257 melanoma,> 50 µM
same,GI50,MDA-MB-435,3.89 µM
same,TGI,MDA-MB-435,> 50 µM
same,GI50,SR leukemia,0.0276 µM
same,GI50,OVCAR-4 ovarian,14.4 µM
same,TGI,OVCAR-4 ovarian,> 50 µM
same,GI50,SK-MEL-2 melanoma,7.37 µM
same,TGI,SK-MEL-2 melanoma,31.9 µM
same,GI50,OVCAR-5 ovarian,11 µM
same,TGI,OVCAR-5 ovarian,> 50 µM
same,GI50,MALME-3M melanoma,1.21 µM
same,TGI,MALME-3M melanoma,14.1 µM
same,GI50,NCI-H460 lung,0.116 µM
same,TGI,NCI-H460 lung,6.88 µM
same,GI50,786-0 renal,0.976 µM
same,TGI,786-0 renal,3.67 µM
same,GI50,HOP-92 NSCLC,0.397 µM
same,TGI,HOP-92 NSCLC,9.97 µM
same,GI50,T-47D breast,0.331 µM
same,TGI,T-47D breast,> 33.1 µM
same,GI50,BT-549 breast,1.66 µM
same,TGI,BT-549 breast,> 29.2 µM
same,GI50,A498 renal,0.605 µM
same,TGI,A498 renal,14 µM
same,GI50,HCT-15 colon,8.4 µM
same,TGI,HCT-15 colon,> 50 µM
same,GI50,ACHN renal,1.27 µM
same,TGI,ACHN renal,> 25 µM
same,GI50,SK-MEL-28 melanoma,2.12 µM
same,TGI,SK-MEL-28 melanoma,> 34.6 µM
same,GI50,RPMI-8226 leukemia,0.666 µM
same,TGI,RPMI-8226 leukemia,7.83 µM
same,GI50,COLO 205 colon,3.68 µM
same,TGI,COLO 205 colon,21.3 µM
same,GI50,TK-10 renal,3.56 µM
same,TGI,TK-10 renal,15.4 µM
same,GI50,KM12 colon,2.46 µM
same,TGI,KM12 colon,> 24.4 µM
same,GI50,SF-539 CNS,0.635 µM
same,TGI,SF-539 CNS,3.78 µM
same,GI50,OVCAR-3 ovarian,4.8 µM
same,TGI,OVCAR-3 ovarian,> 28 µM
same,GI50,NCI-H226 lung,0.792 µM
same,TGI,NCI-H226 lung,7.25 µM
